From patent US6897036B2, “Fluorescent detection of peroxidase enzymes” (Lumigen, Inc., priority 2002, dated 2005) come the findings set out here.

Each structure is given as a SMILES string.

What all share (type): biochemical, horseradish
For assay [1], the target named is T1, HRP (Armoracia rusticana, UniProt P00433).
T1 sequence (P00433 31-338): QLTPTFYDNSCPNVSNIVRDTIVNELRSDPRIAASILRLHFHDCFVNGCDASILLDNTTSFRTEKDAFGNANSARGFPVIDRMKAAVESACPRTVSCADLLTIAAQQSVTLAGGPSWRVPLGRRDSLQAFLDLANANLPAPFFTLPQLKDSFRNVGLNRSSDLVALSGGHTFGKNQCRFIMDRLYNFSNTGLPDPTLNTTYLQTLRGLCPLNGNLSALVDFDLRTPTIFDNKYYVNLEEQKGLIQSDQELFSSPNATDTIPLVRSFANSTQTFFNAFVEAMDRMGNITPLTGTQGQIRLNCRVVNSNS
Description: Evaluation of substrates: fluorescence spectra of the product formed by reaction with HRP. Conditions: 0.05 mM substrate, HRP 13.8 fmol. As for the experimental part: Enhanced reagent formulations containing each of Compounds 1-13 were prepared in either the Basic Formulation or the Acidic Formulation described below.
Fluorescence spectra were obtained on a Jobin Yvon/SPEX FluoroMax-3 spectrofluorometer with the excitation and emission slits set at 1.0 nm bandpass. UV Fluorimeter cuvettes (3.5 mL capacity, Perfector Scientific) were used.
Each of Compounds 1-13 was tested for production of a fluorescent product by reaction with HRP followed by spectrofluorometric analysis. A representative procedure using Compound 1 is described below. Essentially the same procedure was used for the other compounds.
Three mL of a 0.05 mM solution of ethyl N-methylacridan 9-carboxylate (Compound 1) in the acidic formulation were pipetted into a cuvette. Excitation (λem=524 nm) and emission (λex=[…]) spectra were recorded. HRP (13.8 fmol, 4.6×10^−12M) was added and mixed thoroughly. The increase in fluorescence at 524 nm was recorded over 15 min. Excitation (λem=524 nm) and emission (λex=357 nm) spectra were recorded again.

For assay [2], the target named is T1, HRP. Description: Fluorescence signal/background measurements in the presence of HRP. The conditions noted are these: HRP 13.8 fmol, t=15 min vs t=0. The method, then: Three mL of a solution of each substrate in either the acidic or basic formulation described in Example 12 were pipetted into a cuvette. HRP (13.8 fmol, 4.6×10^−12M) was added and mixed thoroughly. The increase in fluorescence at the maximum was recorded after 15 min for each substrate. Signal-background values were calculated by comparing the fluorescence intensities at t=0 minutes and t=15 minutes.

Assay [3] has as its target T1, HRP. The assay is described as follows: Fluorescent detection sensitivity of HRP (microtiter plate fluorometer, FIG. 3). Conditions: 0.05 mM substrate in acidic formulation. The method, then:
FIG. 3 is a graph showing the linearity of detection of HRP using fluorogenic substrates performed according to the methods of the present invention. Solutions containing 0.05 mM substrate 1 or 4, 0.1 mM 4-phenylphenol, 0.5 mM urea peroxide, 1 mM EDTA, 0.025% TWEEN 20 in 10 mM acetate buffer, pH 5 and a solution of 0.05 mM substrate 2, 0.1 mM 4-phenylphenol, 0.5 mM urea peroxide, 1 mM EDTA, 0.025% TWEEN 20 in 10 mM in 10 mM tris, pH 8 were reacted with the indicated quantities of HRP. After a reaction period of 15-20 min, fluorescence intensity was measured at the maximum. The term Intensity-Background refers to the fluorescence intensity in relative light units in the presence of HRP corrected for background fluorescence (B) in the absence of HRP. […]
Fluorescence detection limits were obtained on a Labsystems Fluoroskan Ascent microtiter plate fluorometer using an excitation bandpass filter (380 nm) and an emission bandpass filter (465 or 530 nm). […] The strips were then read on the Fluoroskan Ascent with the 380 nm-530 nm filter set.
(§1) HRP was serially diluted in type 1 water and 10 μl of diluted HRP was pipetted into each well. […] The strips were then read on the Fluoroskan Ascent with the 380 nm-465 nm filter set.
as §1

Assay [4] has as its target T1, HRP. The assay is described as follows: Sequential fluorescence spectra and kinetics of fluorescent product formation with HRP. From the text:
FIG. 1 is a graph showing a series of sequential fluorescence spectra obtained from a reaction solution containing Compound 10 and HRP. The spectra correspond to the fluorescence of the acridinium product. For comparison, the fluorescence spectrum of an independently prepared sample of N-methylacridinium triflate is shown.
FIG. 2 is a graph showing the time course of the generation of fluorescent product from the reaction described in FIG. 1. The product is monitored by excitation at 357 nm and detecting fluorescence emission at 495 nm.
FIG. 4 is a graph showing the a series of sequential fluorescence spectra obtained from a reaction solution containing compound 12 and HRP. The spectra reveal the formation of the acridinium ester intermediate and N-methylacridone product.
Three mL of a 0.05 mM solution of N-methylacridan in the acidic formulation were pipetted into a cuvette. HRP (13.8 fmol, 4.6×10^−12M) was added and mixed thoroughly. Emission spectra (excitation at 357 nm) were obtained at 4.5 minute intervals over 1.8 h. The emission spectrum (excitation at 357 nm) of a 0.05 mM solution of N-methyl acridinium triflate in the acidic formulation is also shown for comparison with the emission spectra from the N-methylacridan/HRP solution.
FIG. 2 depicts the fluorescence intensity at 495 nm (with excitation at 357 nm) from the reaction solution of Example 16 as a function of time. Fluorescence intensity reached a maximum in 2 h and remained constant.
Three mL of a reagent containing 0.3 mM 2′,3′,6′-trifluorophenyl 10-methylacridan-9-carboxylate (compound 12), 0.1 mM 4-phenylphenol, 0.5 mM urea peroxide, 1 mM EDTA, and 0.025% TWEEN 20 in 0.01 M tris buffer, pH 8.0 were pipetted into a cuvette. HRP (13.8 fmol, 4.6×10^−12M) was added and mixed thoroughly. Emission spectra (excitation at 357 nm) were obtained at 4.5 minute intervals over 1.8 h.

In assay [5] the target is T1, HRP. Description: Fluorescent detection of HRP by acridinium ester end product formation. Conditions: for Fluorescence wavelength of the acridinium end product: reaction with HRP, tris pH 8.0. The method, then: Forty μL of a detection reagent consisting of 0.05 mM compound 14, 0.6 mM urea peroxide, 0.1 mM p-phenylphenol, 0.025% TWEEN 20, 1 mM EDTA in 0.01 M tris buffer, pH 8.0 was reacted with 1 μL of HRP (1.4×10^−16 mol) at room temperature. Acridinium ester end product formation was detected after 5 min and continued to increase over 1 h as detected by spectrophotometry and fluorescence at 500 nm. [drawing 12]

The mark [6] stands for this setting: 0.05 mM substrate, tris pH 8.0, HRP 1.4×10^−16 mol, room temperature.

Take `CCOC(=O)C1c2ccccc2N(C)c2ccccc21` [Compound 1, ethyl N-methylacridan 9-carboxylate]: the “Fluorescent properties of acridan substrates (fluorescence emission maximum after reaction with HRP)” value (“Fluorescent properties” for short) in assay [1] (pH 5 acidic formulation) and in assay [1] (pH 8 basic formulation) was 524 nm in each case. Moreover, the “Fluorescent intensity in the presence of HRP (as S/B)” value (from here on “Fluorescent intensity in the presence”) in assay [2] (pH 5 acidic formulation) was 29.5; in assay [2] (pH 8 basic formulation), 11.0. Also, in assay [3], the “Fluorescent detection sensitivity of HRP (in words)” value is recorded as “excellent sensitivity”.

For the compound `COc1ccc(C2c3ccccc3N(C)c3ccccc32)cc1` [Compound 3], the “Fluorescent properties” value in assay [1] (pH 5 acidic formulation) and in assay [1] (pH 8 basic formulation) was 484 nm each time. Further, the “Fluorescent intensity in the presence” value in assay [2] (pH 5 acidic formulation) was found to be 1.4.

With `Fc1ccc(N2c3ccccc3Cc3ccccc32)cc1` [Compound 4, N-(4-fluorophenyl)acridan], the “Fluorescent properties” value in assay [1] (pH 5 acidic formulation) is 497 nm; in assay [1] (pH 8 basic formulation), 496 nm. Moreover, the “Fluorescent intensity in the presence” value in assay [2] (pH 5 acidic formulation) came to 3.9. Besides, the “Fluorescent detection sensitivity of HRP (in words)” value in assay [3] is recorded as “excellent sensitivity”.

In the case of `c1ccc(CN2c3ccccc3Cc3ccccc32)cc1` [Compound 5, N-benzylacridan], the “Fluorescent properties” value in assay [1] (pH 5 acidic formulation) and in assay [1] (pH 8 basic formulation) was 494 nm each time. For the same compound, the “Fluorescent intensity in the presence” value in assay [2] (pH 5 acidic formulation) came out at 5.6.

Turning to `COc1ccc2c(c1)N(c1ccccc1)c1ccccc1C2` [Compound 6], the “Fluorescent properties” value was found to be 512 nm in assay [1] (pH 5 acidic formulation) and 511 nm in assay [1] (pH 8 basic formulation). Moreover, the “Fluorescent intensity in the presence” value in assay [2] (pH 5 acidic formulation) was found to be 3.6.

Turning to `CC1c2ccccc2N(C)c2ccccc21` [Compound 7], the entries for the “Fluorescent properties” value in assay [1] (pH 5 acidic formulation) and in assay [1] (pH 8 basic formulation) were 490 nm and 488 nm, respectively. Moreover, the “Fluorescent intensity in the presence” value in assay [2] (pH 5 acidic formulation) was 15.8.

On to `O=C(O)C1c2ccccc2N(Cc2ccccc2)c2ccccc21` [Compound 8, N-benzyl-acridan-9-carboxylic acid], for which the “Fluorescent properties” value in assay [1] (pH 8 basic formulation) is 493 nm.

Take `CN1c2ccccc2C(C(=O)O)c2ccccc21` [Compound 9]: the “Fluorescent properties” value in assay [1] (pH 8 basic formulation) came out at 489 nm. In addition, the “Fluorescent intensity in the presence” value in assay [2] (pH 8 basic formulation) is given as 4.3.

Consider `CN1c2ccccc2Cc2ccccc21` [Compound 10, N-methylacridan], for which, in assay [1] (pH 8 basic formulation), the “Fluorescent properties” value worked out at 490 nm. The “Time at which fluorescence intensity reached a maximum” value in assay [4] (0.05 mM in acidic formulation, HRP 13.8 fmol, emission 495 nm, excitation 357 nm) was determined as 2 h. Moreover, the “Product of the HRP reaction identified from emission spectra (in words)” value in assay [4] (0.05 mM in acidic formulation, HRP 13.8 fmol, excitation 357 nm, compared with N-methyl acridinium triflate) was “enzymatic conversion of Compound 10 to the fluorescent acridinium compound”.

In the case of `c1ccc(N2c3ccccc3C(C3c4ccccc4N(c4ccccc4)c4ccccc43)c3ccccc32)cc1` [Compound 11], the “Fluorescent properties” value in assay [1] (pH 5 acidic formulation) and in assay [1] (pH 8 basic formulation) was 494 nm in each case. For the same compound, the results for the “Fluorescent intensity in the presence” value in assay [2] (pH 5 acidic formulation) and in assay [2] (pH 8 basic formulation) were 84.0 and 6.1, respectively.

Regarding `CN1c2ccccc2C(C(=O)Oc2c(F)ccc(F)c2F)c2ccccc21` [Compound 12, 2′,3′,6′-trifluorophenyl 10-methylacridan-9-carboxylate, reference compound], in assay [4] (0.3 mM substrate, tris buffer pH 8.0, HRP 13.8 fmol, spectra every 4.5 min over 1.8 h), the “Progression of the HRP reaction from emission spectra (in words)” value is “grow in of acridinium fluorescence and gradual predominance of N-methylacridone fluorescence”.

For `COc1ccc2c(c1)N(C)c1cccc(OC)c1C2C(=O)Oc1c(F)ccc(F)c1F` (stereo not shown) [Compound 14], in assay [5] (setting [6]), the “Period over which end product formation continued to increase” value was 1 h and the “Time after which acridinium ester end product formation was detected” value was 5 min. In addition, the “Fluorescence wavelength of the acridinium end product” value in assay [5] came out at 500 nm.

In the case of `COc1ccc2c(c1)N(C)c1c(C)ccc(OC)c1C2C(=O)Oc1c(F)ccc(F)c1F` (stereo not shown) [Compound 15, 2,3,6-trifluoro-phenyl 1,6-dimethoxy-4,10-dimethylacridan-9-carboxylate], the “Result of the reaction with HRP (in words)” value in assay [5] (experiment similar to that with compound 14) was “fluorescent acridinium end product formation”. Further, in assay [5], the “Fluorescence wavelength of the acridinium end product” value worked out at 500 nm.
